{"source": "paper PMC11579209", "about": "“Population pharmacokinetics and exposure–response relationships of maribavir in transplant recipients with cytomegalovirus infection” (Journal of Pharmacokinetics and Pharmacodynamics, 2024)", "key": {"[1]": {"experiment": "Individual predicted steady-state PK parameters (400 mg BID) derived from the final PopPK model", "assay_type": "in vivo", "conditions": "for Ctrough.ss, geometric mean (%CV) / AUC / Cmax / half-life: 400 mg BID steady state; for AUC / Cmax / half-life: human, plasma, oral, 400 mg; for AUC: read-out: AUC0–τ, geometric mean (%CV); for Cmax: read-out: Cmax.ss, geometric mean (%CV); for half-life: read-out: Half-life, geometric mean (%CV) (converted)", "description": "The final model was used to derive individual estimates of steady-state AUC over one dosing interval (AUC0–τ), Cmax.ss, and minimum maribavir plasma concentration (Ctrough.ss) for a 400 mg BID dosing regimen for all participants in the PopPK analysis. Individual estimates of Cmax.ss, Ctrough.ss, and AUC0–τ were obtained by prediction of the concentration–time profiles (concentrations predicted at 0, 1, 2, 3, 4, 6, 8 and 12 h) after a steady-state dose of 400 mg BID for respective individuals using their individual post hoc parameter values in the absence of strong CYP3A4 inducers or strong CYP3A4 inhibitors, and zero values for residual variability. The PK parameters AUC0–τ (linear up/log down trapezoidal rule), Cmax.ss, and Ctrough.ss were determined by non-compartmental methods.\nThe mean (percentage coefficient of variation [CV%]), geometric mean (GM) CV%, median, and percentiles for AUC0–τ, Cmax.ss, and Ctrough.ss were obtained overall and by health status (healthy individuals, all transplant recipients with CMV infection, and transplant recipients with refractory CMV infection in the phase 3 SOLSTICE study). For transplant patients with CMV infections, summary statistics were provided by covariates of interest including age (18 to < 65 years and ≥ 65 years; 18 to < 65 years, 65 to < 75 years, and 75 to < 85 years), sex, race, ethnicity, body mass index (BMI; underweight [< 18.5 kg/m^2], normal weight [18.5 to < 25 kg/m^2], overweight [25 to < 30 kg/m^2], obese [≥ 30 kg/m^2]), concurrent PPI, concurrent H2 inhibitors, transplant type, baseline plasma CMV DNA (low and intermediate/high), CMV category, hepatic impairment (none, Child-Pugh Class A, Child-Pugh Class B), presence of CMV mutations at baseline, and baseline use of antilymphocyte antibody. For the PPI and H2 inhibitor analyses, PK parameters were computed only for patients receiving the relevant concomitant medication for all their PK observations and for those who never received the relevant concomitant medication. For healthy individuals, summary statistics were provided by the following covariates of interest: age (≤ 65 years, > 65 years), sex, race, ethnicity, and BMI."}, "[2]": {"tested_on": "Cytochrome P450 (CYP) 1A2", "parameters": "method as in PMID 12654667, doi:10.1016/j.bbmt.2018.12.600", "conditions": "formation of VP44469; cited from earlier work"}, "[3]": {"tested_on": "plasma proteins", "parameters": "method as in earlier work", "conditions": "cited from earlier work"}, "[4]": {"conditions": "all transplant patients with CMV infection, n = 485"}, "[5]": {"conditions": "refractory CMV infection (SOLSTICE only), n = 253"}, "[6]": {"conditions": "transplant patients with CMV, 400 mg BID"}, "[7]": {"conditions": "transplant patients with CMV, n = 5 in older group"}}, "note": "Where two headings read alike, the source gives them in different places.", "data": [{"compound": "CC(C)Nc1nc2cc(Cl)c(Cl)cc2n1[C@H]1O[C@@H](CO)[C@H](O)[C@@H]1O", "note": "[maribavir]", "values": [{"measurement": "Ctrough.ss, geometric mean (%CV)", "setting": "[1]; all participants, n = 667", "result": "4.33 (89.7) μg/mL"}, {"measurement": "Ctrough.ss, geometric mean (%CV)", "setting": "[1]; [4]", "result": "4.90 (89.7) µg/mL"}, {"measurement": "Ctrough.ss, geometric mean (%CV)", "setting": "[1]; healthy volunteers, n = 133", "result": "2.89 (71.7) μg/mL"}, {"measurement": "Ctrough.ss, geometric mean (%CV)", "setting": "[1]; [5]", "result": "5.13 (93.0) µg/mL"}, {"measurement": "GM AUC0-τ higher in transplant patients with CMV infection than in healthy volunteers", "setting": "[1]; 400 mg BID, steady state", "result": 27, "unit": "%"}, {"measurement": "GM Cmax.ss higher in transplant patients with CMV infection than in healthy volunteers", "setting": "[1]; 400 mg BID, steady state", "result": 5, "unit": "%"}, {"measurement": "AUC", "setting": "[1]; all participants, n = 667", "result": 121, "unit": "µg·h/mL"}, {"measurement": "Cmax", "setting": "[1]; all participants, n = 667", "result": 17200, "unit": "ng/mL"}, {"measurement": "half-life", "setting": "[1]; all participants, n = 667", "result": 10.9, "unit": "h"}, {"measurement": "AUC", "setting": "[1]; [4]", "result": 128, "unit": "µg·h/mL"}, {"measurement": "Cmax", "setting": "[1]; [4]", "result": 17200, "unit": "ng/mL"}, {"measurement": "AUC", "setting": "[1]; healthy volunteers, n = 133", "result": 101, "unit": "µg·h/mL"}, {"measurement": "Cmax", "setting": "[1]; healthy volunteers, n = 133", "result": 16400, "unit": "ng/mL"}, {"measurement": "half-life", "setting": "[1]; healthy volunteers, n = 133", "result": 9.04, "unit": "h"}, {"measurement": "Cmax", "setting": "[1]; [5]", "result": 16900, "unit": "ng/mL"}, {"measurement": "AUC", "setting": "[1]; transplant patients with refractory CMV infection (SOLSTICE only), n = 253", "result": 129, "unit": "µg·h/mL"}, {"measurement": "GM AUC0-τ higher in underweight (BMI < 18.5 kg/m^2) than normal-weight patients", "setting": "[1]; [6]", "result": 24, "unit": "%"}, {"measurement": "GM AUC0τ higher in female than male patients", "setting": "[1]; [6]", "result": 19, "unit": "%"}, {"measurement": "GM Cmax.ss higher in female than male patients", "setting": "[1]; [6]", "result": 25, "unit": "%"}, {"measurement": "GM Cmax.ss higher in underweight (BMI < 18.5 kg/m^2) than normal-weight patients", "setting": "[1]; [6]", "result": 31, "unit": "%"}, {"measurement": "Maribavir exposure between patients with no, Child-Pugh class A, or Child-Pugh class B hepatic impairment", "setting": "[1]; [6]", "result": "similar"}, {"measurement": "Maribavir exposure with or without PPI", "setting": "[1]; [6]", "result": "similar"}, {"measurement": "Maribavir exposure with or without histamine H2 blockers", "setting": "[1]; [6]", "result": "similar"}, {"measurement": "AUC0-τ higher in patients aged 75 to < 85 years vs 18 to < 65 years", "setting": "[1]; [7]", "result": 54, "unit": "%"}, {"measurement": "Cmax.ss higher in patients aged 75 to < 85 years vs 18 to < 65 years", "setting": "[1]; [7]", "result": 38, "unit": "%"}, {"measurement": "Share of CYP-mediated metabolism by CYP1A2", "setting": "[2]", "result": "15–30%"}, {"measurement": "Bound to plasma proteins", "setting": "[3]", "result": "approximately 98%"}]}]}
